How the values were obtained:
[1] = Metabolite identification in human liver microsomes with NADPH; type: in vitro ADME; conditions: human liver microsomes in the presence of NADPH, LC-MS/MS
[2] = Microsomal stability in human liver microsomes; type: in vitro ADME; conditions: parent remaining after 30mins incubation with human liver microsomes

Row | HLM % parent [2] [%] | SMILES | metabolites formed [1]
1 |  | O=C(CCc1cnnn1-c1cccc(Cl)c1)c1ccccc1 [Compound 12e] | two metabolites were formed with masses equal to (parent+2) and (parent+16)
2 | 4 | CC(C)(C)C(=O)CCc1cnnn1-c1ccccc1 [Compound 13h] | 

— paper PMC3972730 (Bioorganic & medicinal chemistry letters, 2010)
